Where two headings read alike, the source gives them in different places. Blank lines part the entries; values can stand above or below the molecule they belong to.
Molecular target: T1, SIRT1 (Homo sapiens, UniProt Q96EB6)
T1 sequence (Q96EB6 1-747): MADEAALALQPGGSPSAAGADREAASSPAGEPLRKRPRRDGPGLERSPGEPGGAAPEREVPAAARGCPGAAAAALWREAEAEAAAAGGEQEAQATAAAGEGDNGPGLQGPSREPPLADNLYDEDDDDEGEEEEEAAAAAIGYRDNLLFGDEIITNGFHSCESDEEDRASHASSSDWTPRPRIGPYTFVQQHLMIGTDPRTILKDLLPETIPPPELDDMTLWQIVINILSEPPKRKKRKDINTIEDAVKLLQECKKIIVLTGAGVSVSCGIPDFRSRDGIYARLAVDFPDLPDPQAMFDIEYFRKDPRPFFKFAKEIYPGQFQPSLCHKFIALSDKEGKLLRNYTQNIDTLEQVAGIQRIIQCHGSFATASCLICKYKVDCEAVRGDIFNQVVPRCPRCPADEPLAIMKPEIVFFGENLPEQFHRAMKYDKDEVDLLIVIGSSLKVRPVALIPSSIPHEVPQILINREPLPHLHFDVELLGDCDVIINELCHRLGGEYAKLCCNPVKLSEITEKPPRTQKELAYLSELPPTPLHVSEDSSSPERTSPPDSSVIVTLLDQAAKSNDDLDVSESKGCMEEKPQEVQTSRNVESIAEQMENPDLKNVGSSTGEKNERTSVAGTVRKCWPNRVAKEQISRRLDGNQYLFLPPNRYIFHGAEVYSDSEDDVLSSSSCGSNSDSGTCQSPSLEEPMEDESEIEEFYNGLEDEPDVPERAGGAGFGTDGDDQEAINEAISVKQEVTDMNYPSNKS
Assay: Trp mass spectrometry assay of SIRT1 activation
Type: biochemical
Settings: for TRP Activity (EC1.5): EC1.5 = concentration that results in 150% activation of SIRT1
Procedure, shortened: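 N-terminal His-tagged human SIRT1 (10 nM, E. coli BL21(DE3)) with 0.5 μM Ac-RHKK(Ac)W-NH2 peptide and 120 μM βNAD+, 25 min at 25 °C in HEPES pH 7.5, formic acid stop. OAADPR or deacetylated peptide quantified by mass spectrometry; EC1.5 (50% activity increase over control) and Percent Maximum Activation reported.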

[1] = Trp mass spectrometry assay, EC1.5 = concentration of test compound that results in 150% activation of SIRT1
[2] = Trp mass spectrometry assay, percent maximum fold activation of SIRT1, read-out: Tryp % Fold Act
[3] = concentration giving 150% activation of SIRT1, Trp peptide substrate
[4] = Trp mass spectrometry assay, concentration of test compound giving 150% activation of SIRT1
[5] = Trp peptide assay, maximum activity relative to control (100%), read-out: TRP MAX RESP (percent maximum fold activation)
[6] = Trp peptide substrate, concentration giving 150% activation of SIRT1

Tryp AVG EC1.5 (μM) [3]: A (A (EC1.5<1 μM))
SMILES: NC(=O)c1ccc(NC(=O)N2c3nc(-c4cccc(C(F)(F)F)c4)ccc3N3CC[C@H]2C3)cc1 [Example 659]

Tryp AVG EC1.5 (μM) [3]: A (A (EC1.5<1 μM))
Emax (percent maximum fold activation of SIRT1, Trp peptide substrate, read-out: Tryp % Fold Act): > 150%
SMILES: CC(C)(C)OC(=O)NCCCc1cc(NC(=O)N2c3nc(-c4cccc(C(F)(F)F)c4)ccc3N3CCC[C@H]2C3)cc(-c2cnco2)c1 [Example 754]

Tryp AVG EC1.5 (μM) [3]: A (A (EC1.5<1 μM))
SMILES: NCCCc1ccc(NC(=O)N2c3nc(-c4cccc(C(F)(F)F)c4)ccc3N3CC[C@H]2C3)cc1-c1cnco1 [Example 765]

Tryp AVG EC1.5 (μM) [1]: A (A (EC1.5<1 μM))
SMILES: O=C(Nc1cccc(C2CCNC2)c1)N1c2nc(-c3cccc(C(F)(F)F)c3)ccc2N2CC[C@H]1C2 (some centres unmarked) [Example 593]

Tryp AVG EC1.5 (μM) [1]: C (C (EC1.5>25 μM))
Emax [2]: < 150%
SMILES: Cc1cc(C)n(N)c1CC1C=CC(CCC(=O)NCc2cn(-c3cccc(NC(=O)N4c5nc(-c6cccc(C(F)(F)F)c6)ccc5N5CC[C@H]4C5)c3)nn2)=N1 (some centres unmarked) [Example 622]

Tryp AVG EC1.5 (μM) [1]: A (A (EC1.5<1 μM))
SMILES: O=C(Nc1cc(-c2cnco2)ccn1)N1c2nc(-c3cccc(C(F)(F)F)c3)ccc2N2CCC1CC2 [Example 595]

Tryp AVG EC1.5 (μM) [3]: A (A (EC1.5<1 μM))
SMILES: Cc1noc(C)c1-c1cccc(NC(=O)N2c3nc(-c4cccc(C(F)(F)F)c4)ccc3N3CC[C@H]2C3)n1 [Example 657]

Tryp AVG EC1.5 (μM) [3]: A (A (EC1.5<1 μM))
SMILES: NCCCCCC(=O)NCc1cn(-c2cccc(NC(=O)N3c4nc(-c5cccc(C(F)(F)F)c5)ccc4N4CC[C@H]3C4)c2)nn1 [Example 639]

Tryp AVG EC1.5 (μM) [1]: B (B (EC1.5 1-25 μM))
SMILES: O=C(NCCc1cccnc1)N1c2nc(-c3cccc(C(F)(F)F)c3)ccc2N2CC[C@H]1C2 [Example 615]

Tryp AVG EC1.5 (μM) [3]: B (B (EC1.5 1-25 μM))
SMILES: COc1cc(NC(=O)N2c3nc(-c4cccc(Cl)c4)ccc3N3C[C@@H](O)[C@H]2C3)nc(OC)n1 [Example 680]

Tryp AVG EC1.5 (μM) [3]: A (A (EC1.5<1 μM))
SMILES: CCCCC(=O)c1cccc(NC(=O)N2c3nc(-c4cccc(C(F)(F)F)c4)ccc3N3CC[C@H]2C3)c1 [Example 737]

Tryp AVG EC1.5 (μM) [1]: B (B (EC1.5 1-25 μM))
SMILES: O=C(Nc1ccc2c(c1)CCC2)N1c2nc(-c3cccc(C(F)(F)F)c3)ccc2N2CC[C@H]1C2 [Example 624]

Tryp AVG EC1.5 (μM) [3]: A (A (EC1.5<1 μM))
SMILES: CC(=O)NCc1ccc(NC(=O)N2c3nc(-c4cccc(C(F)(F)F)c4)ccc3N3CCC[C@H]2C3)cc1 [Example 790]

Tryp AVG EC1.5 (μM) [1]: A (A (EC1.5<1 μM))
SMILES: O=C(Nc1cncc(F)c1)N1c2nc(-c3cccc(N4CCOCC4)c3)ccc2N2CCC[C@H]1C2 [Example 559]

Tryp AVG EC1.5 (μM) [3]: A (A (EC1.5<1 μM))
SMILES: CC(C)(C)OC(=O)NCc1cnnn1-c1cccc(NC(=O)N2c3nc(-c4cccc(C(F)(F)F)c4)ccc3N3CC[C@H]2C3)c1 [Example 638]

Tryp AVG EC1.5 (μM) [3]: B (B (EC1.5 1-25 μM))
SMILES: O=C(Nc1cc(-c2cnco2)ccn1)N1c2nc(-c3cccc(C(F)(F)F)c3)ccc2N2C[C@@H](O)[C@H]1C2 [Example 662]

Continued, molecule first:

SMILES: Cc1cc(-c2ccc3c(n2)N(C(=O)Nc2ccc4nn(C)cc4c2)[C@H]2CCN3C2)ccn1 [Example 483]
Tryp AVG EC1.5 (μM) [1]: A (A (EC1.5<1 μM))
Emax [2]: > 150%

SMILES: O=C(Nc1ccncc1)N1c2nc(-c3cccc(C(F)(F)F)c3)ccc2N2CC(O)C1C2 (centres unmarked) [Compound 114]
Emax (Trp peptide substrate, percent maximum fold activation of SIRT1, read-out: Tryp % Fold Act): > 150%

SMILES: Cc1cncc(-c2ccc3c(n2)N(C(=O)Nc2ccccn2)[C@H]2CCCN3C2)c1 [Example 504]
Tryp AVG EC1.5 (μM) [1]: A (A (EC1.5<1 μM))

SMILES: O=C(Nc1ccccn1)N1c2nc(-c3ccnc(N4CCC(F)(F)C4)c3)ccc2N2CC[C@H]1C2 [Example 388]
Tryp AVG EC1.5 (μM) [4]: A (A (EC1.5<1 μM))

SMILES: Cc1ccncc1-c1ccc2c(n1)N(C(=O)Nc1cnccn1)[C@H]1CCCN2C1 [Example 513]
Tryp AVG EC1.5 (μM) [1]: C (C (EC1.5>25 μM))

SMILES: COc1ccc(-c2ccc3c(n2)N(C(=O)Nc2ccccn2)[C@H]2CCN3C2)cn1 [Example 342]
Tryp AVG EC1.5 (μM) [4]: B (B (EC1.5 1-25 μM))

SMILES: Cc1cc(-c2ccc3c(n2)N(C(=O)Nc2cnn(C)c2)[C@H]2CCCN3C2)ccn1 [(9S)-N-(1-methyl-1H-pyrazol-4-yl)-5-(2-methylpyridin-4-yl)-1,6,8-triazatricyclo[7.3.1.0 {2,7}]trideca-2(7),3,5-triene-8-carboxamide]
TRP Activity (EC1.5) (Trp peptide assay): B (B (EC1.5 1-25 μM))
Emax [5]: > 150%

SMILES: O=C(Nc1ccccn1)N1c2nc(-c3cccc(CC(O)CO)c3)ccc2N2CC[C@H]1C2 (some centres unmarked) [Example 354]
Tryp AVG EC1.5 (μM) [4]: A (A (EC1.5<1 μM))

SMILES: CCn1cc(-c2ccc3c(n2)N(C(=O)Nc2cnccn2)[C@H]2CCN3C2)cn1 [(9S)-5-(1-ethyl-1H-pyrazol-4-yl)-N-(pyrazin-2-yl)-1,6,8-triazatricyclo[7.2.1.0 {2,7}]dodeca-2(7),3,5-triene-8-carboxamide]
TRP Activity (EC1.5) (Trp peptide assay): B (B (EC1.5 1-25 μM))
Emax [5]: > 150%

SMILES: O=C(NCCO)c1ccc2c(n1)N(C(=O)Nc1ccccn1)[C@H]1CCN2C1 [(9S)-5-N-(2-hydroxyethyl)-8-N-(pyridin-2-yl)-1,6,8-triazatricyclo[7.2.1.0^{2,7}]dodeca-2(7),3,5-triene-5,8-dicarboxamide]
TRP Activity (EC1.5) (Trp peptide assay): B (B (EC1.5 1-25 μM))
Emax [5]: > 150%

SMILES: CC(C)N1CCCN(c2ccc3c(n2)N(C(=O)Nc2ccncn2)[C@H]2CCCN3C2)CC1 [Example 447]
Tryp AVG EC1.5 (μM) [1]: C (C (EC1.5>25 μM))

SMILES: O=C1OCc2ccc(NC(=O)N3c4nc(-c5cccc(C(F)(F)F)c5)ccc4N4CC[C@H]3C4)cc21 [Example 93]
Tryp AVG EC1.5 (μM) [6]: A (A (EC1.5<1 μM))

SMILES: O=C(Nc1nc2ccccc2s1)N1c2nc(-c3cccc(C(F)(F)F)c3)ccc2N2CC[C@H]1C2 [Example 90]
Tryp AVG EC1.5 (μM) [6]: A (A (EC1.5<1 μM))

SMILES: CS(=O)(=O)c1cncc(-c2ccc3c(n2)N(C(=O)Nc2ccncn2)[C@H]2CCCN3C2)c1 [Example 379]
Tryp AVG EC1.5 (μM) [4]: A (A (EC1.5<1 μM))

SMILES: O=C(Nc1cncc(F)c1)N1c2nc(-c3ccnc(N4CC[C@H](F)C4)c3)ccc2N2CC[C@H]1C2 [Example 475]
Tryp AVG EC1.5 (μM) [1]: A (A (EC1.5<1 μM))

SMILES: CCOc1ncc(-c2ccc3c(n2)N(C(=O)Nc2cnccn2)[C@H]2CCN3C2)cc1C#N [(9S)-5-(5-cyano-6-ethoxypyridin-3-yl)-N-(pyrazin-2-yl)-1,6,8-triazatricyclo[7.2.1.0^{2,7}]dodeca-2(7),3,5-triene-8-carboxamide]
TRP Activity (EC1.5) (Trp peptide assay): C (C (EC1.5>25 μM))
Emax [5]: < 150%

SMILES: O=C(Nc1cnccn1)N1c2nc(-c3cc(F)c(F)c(F)c3)ccc2N2CC[C@H]1C2 [Example 416]
Tryp AVG EC1.5 (μM) [4]: C (C (EC1.5>25 μM))

SMILES: Cc1nc(NC(=O)N2c3nc(-c4cncc(C(F)(F)F)c4)ccc3N3CCC[C@H]2C3)sc1C [Example 427]
Tryp AVG EC1.5 (μM) [1]: A (A (EC1.5<1 μM))

SMILES: N#Cc1ccccc1-c1ccc2c(n1)N(C(=O)Nc1ccncn1)[C@H]1CCCN2C1 [Example 451]
Tryp AVG EC1.5 (μM) [1]: B (B (EC1.5 1-25 μM))

SMILES: COc1cc(NC(=O)N2c3nc(-c4ccnc(F)c4)ccc3N3CC[C@H]2C3)ncn1 [Example 358]
Tryp AVG EC1.5 (μM) [4]: C (C (EC1.5>25 μM))

SMILES: Cc1ncc(-c2ccc3c(n2)N(C(=O)Nc2cnccn2)[C@H]2CCN3C2)s1 [(9S)-5-(2-methyl-1,3-thiazol-5-yl)-N-(pyrazin-2-yl)-1,6,8-triazatricyclo[7.2.1.0 {2,7}]dodeca-2(7),3,5-triene-8-carboxamide]
TRP Activity (EC1.5) (Trp peptide assay): B (B (EC1.5 1-25 μM))
Emax [5]: > 150%

SMILES: O=C(c1ccc2c(n1)N(C(=O)Nc1ccccn1)[C@H]1CCN2C1)N1CCC(F)(F)C1 [(9S)-5-[(3,3-difluoropyrrolidin-1-yl)carbonyl]-N-(pyridin-2-yl)-1,6,8-triazatricyclo[7.2.1.0 {2,7}]dodeca-2(7),3,5-triene-8-carboxamide]
TRP Activity (EC1.5) (Trp peptide assay): B (B (EC1.5 1-25 μM))
Emax [5]: > 150%

SMILES: CC(C)(C)OC(=O)NCc1ccc(NC(=O)N2c3nc(-c4cccc(C(F)(F)F)c4)ccc3N3CCC[C@H]2C3)cc1 [Example 445]
Tryp AVG EC1.5 (μM) [1]: A (A (EC1.5<1 μM))

SMILES: Cc1cc(-c2ccc3c(n2)N(C(=O)Nc2cnccn2)[C@H]2CCCN3C2)ccn1 [(9S)-5-(2-methylpyridin-4-yl)-N-(pyrazin-2-yl)-1,6,8-triazatricyclo[7.3.1.0 {2,7}]trideca-2(7),3,5-triene-8-carboxamide]
TRP Activity (EC1.5) (Trp peptide assay): A (A (EC1.5<1 μM))
Emax [5]: > 150%
